Test: Saltiness rating of toothpaste samples by an expert panel
Assay type: in vivo
Conditions: for perceived salty taste compared with both the Control and the other tested cooling materials: cooling material added to commercial toothpaste with approximately 50% sodium bicarbonate, expert panel; for Average RATING (saltiness): saltiness scale of 1 (less salty) to 7 (most salty), 7 evaluators, cooling material at 0.2 % (table) in commercial toothpaste with approximately 50% by weight sodium bicarbonate, Control 6.43
Description: A sample of a commercially available toothpaste containing approximately 50% by weight of sodium bicarbonate was used as a Control. […] All of the toothpaste samples, including the Control, were evaluated by an expert panel comprised of 4 Flavorist(s), 2 Flavor Lab Managers, and 1 Flavor Lab Technician. Each sample was assigned a number by each evaluator to indicate saltiness, using a saltiness scale of 1(less salty) to 7(most salty).

Compound: CC(=O)C1CCC(C)CC1O (centres unmarked) [1-(2-hydroxy-4-methylcyclohexyl)-ethanone]
- perceived salty taste compared with both the Control and the other tested cooling materials: less salty taste
- Average RATING (saltiness): 2.43

Compound: C=C(C)[C@@H]1CC[C@@H](C)C[C@H]1O [1-isopulegol, reference compound]
- Average RATING (saltiness): 6.29

Compound: CNC(=O)C(C)(C(C)C)C(C)C [2-isopropyl-N,2,3-trimethylbutyramide, reference compound]
- Average RATING (saltiness): 6

Compound: CC(C)[C@@H]1CC[C@@H](C)C[C@H]1OCC(O)CO (stereo partly drawn) [3-L-menthoxypropan-1,2-diol]
- perceived salty taste compared with both the Control and the other tested cooling materials: less salty taste
- Average RATING (saltiness): 3.00

Compound: CC(O)CC(=O)O[C@@H]1C[C@H](C)CC[C@H]1C(C)C (stereo partly drawn) [L-menthyl-3-hydroxybutanoate]
- perceived salty taste compared with both the Control and the other tested cooling materials: less salty taste
- Average RATING (saltiness): 3.86

Compound: CC1CCC(C(C)C)C(OC(=O)C(C)O)C1 (centres unmarked) [Menthyl Lactate, reference compound]
- Average RATING (saltiness): 6.43

Compound: COc1ccc(NC(=O)C2CC(C)CCC2C(C)C)cc1 (centres unmarked) [N-(4-methoxyphenyl)-p-menthanecarboxamide]
- perceived salty taste compared with both the Control and the other tested cooling materials: less salty taste
- Average RATING (saltiness): 5.57

Compound: CCOC(=O)CNC(=O)C1CC(C)CCC1C(C)C (centres unmarked) [N-[(ethoxycarbonyl)methyl)-p-menthane-3-carboxamide, reference compound]
- Average RATING (saltiness): 6.43

Compound: CCNC(=O)C1CC(C)CCC1C(C)C (centres unmarked) [N-ethyl-5-methyl-2-propan-2-ylcyclohexane-1-carboxamide, reference compound]
- Average RATING (saltiness): 6.57

Compound: CC1CCC(C(C)C)C(OCCO)C1 (centres unmarked) [hydroxyethyl-menthyl ether]
- perceived salty taste compared with both the Control and the other tested cooling materials: less salty taste
- Average RATING (saltiness): 5.57

Compound: CC1CCC(C(C)(C)O)C(O)C1 (centres unmarked) [p-menthane-3,8-diol]
- perceived salty taste compared with both the Control and the other tested cooling materials: less salty taste
- Average RATING (saltiness): 5.86
